Assay results as given in article PMC10819243 (Pharmaceutics, 2024).
Read-outs that look alike come from different tables or passages of the source.

Key:
HeLa [1] = settings: most active derivatives published earlier; read-out: Cell Line, IC50 [ μM] HeLa; cited from earlier work
KB [2] = settings: most active derivatives published earlier; read-out: Cell Line, IC50 [ μM] KB; cited from earlier work
MCF-7 [3] = settings: most active derivatives published earlier; read-out: Cell Line, IC50 [ μM] MCF-7; cited from earlier work
HeLa [4] = test: MTT assay, HeLa; type: cell-based; settings: for IC50: Homo sapiens, MTT assay, HeLa cervix carcinoma, (±s) standard deviation; for Selectivity Index HeLa: IC50 for normal cell line (HDF)/IC50 for HeLa
KB [5] = test: MTT assay, KB; type: cell-based; settings: for IC50: Homo sapiens, MTT assay, KB nasopharynx carcinoma, (±s) standard deviation; for Selectivity Index KB: IC50 for normal cell line (HDF)/IC50 for KB
MCF-7 [6] = test: MTT assay, MCF-7; type: cell-based; settings: for IC50: Homo sapiens, MCF7, MTT assay, MCF-7 breast carcinoma, (±s) standard deviation; for Selectivity Index MCF-7: IC50 for normal cell line (HDF)/IC50 for MCF-7
A-549 = test: MTT assay, A-549; type: cell-based; settings: for IC50: Homo sapiens, A549, MTT assay, A-549 lung carcinoma, (±s) standard deviation; for Selectivity Index A-549: IC50 for normal cell line (HDF)/IC50 for A-549
[7] = test system: HDF (normal fibroblast cell line); test: MTT assay, HDF; type: cell-based, human; settings: MTT assay, HDF normal fibroblast cell line, (±s) standard deviation
[8] = test system: HeLa, KB, MCF-7, A-549 and HDF cell lines; test: MTT assay, statements over several tested cell lines; type: cell-based; settings: for times less active than mother OA (1): over the tested cell lines
[9] = test system: U-87MG, MCF-7, and HeLa cancer cell lines; test: Apoptosis assay, all cancer cell lines; type: cell-based
From the text: The necrosis process induced by all the tested compounds was very small.

[10] = summary over the tested cell lines, read-out: IC50 values for the tested cell lines (range or summary)
[11] = one approximate value or range for the four cancer cell lines, apart from HDF, read-out: IC50 for HeLa, KB, MCF-7, and A-549 cancer cell lines

SMILES	IC50 (HeLa [1])	IC50 (KB [2])	IC50 (MCF-7 [3])	IC50 (HeLa [4])	Selectivity Index HeLa (HeLa [4])	IC50 (KB [5])	Selectivity Index KB (KB [5])	IC50 (MCF-7 [6])	Selectivity Index MCF-7 (MCF-7 [6])	IC50 (A-549)	Selectivity Index A-549 (A-549)	IC50 ([7]; Homo sapiens, Fibroblast)	IC50 [8, 10]	increase in induction of apoptosis ([9]; 0.1 µg/mL)	increase in induction of apoptosis ([9]; 1.0 µg/mL)	increase in induction of apoptosis ([9]; 10 µg/mL)	IC50 [7]	IC50 [8, 11]	times less active than mother OA (1) [8]
COC(=O)C12CCC(C)(C)CC1C1C(=NOC(=O)c3ccccc3[N+](=O)[O-])CC3C4(C)CCC(OC(C)=O)C(C)(C)C4CCC3(C)C1(C)CC2 (stereo not shown) [8e [22]]	9.84 µM	> 10 µM	9.28 µM																
COC(=O)C12CCC(C)(C)CC1C1C(=NOC(=O)CCl)CC3C4(C)CCC(OC(C)=O)C(C)(C)C4CCC3(C)C1(C)CC2 (stereo not shown) [8b [22]]	9.19 µM	9.42 µM	7.26 µM																
COC(=O)C12CCC(C)(C)CC1C1=CC(=O)C3C4(C)CCC(=NO)C(C)(C)C4CCC3(C)C1(C)CC2 (stereo not shown) [Compound 3]	5.03 µM	6.19 µM	> 10 µM	125 µM	0.49	60.3 µM	1.01	48.4 µM	1.26	63 µM	0.97	61 µM							
CCC(=O)ON=C1C[C@@H]2[C@@]3(C)CC[C@H](OC(C)=O)C(C)(C)[C@@H]3CC[C@@]2(C)[C@]2(C)CC[C@@]3(C(=O)OC)CCC(C)(C)C[C@H]3[C@@H]12 [8d [22]]	1.87 µM	0.72 µM	2.13 µM																
COC(=O)[C@]12CCC(C)(C)CC1C1=CC(=O)C3[C@@]4(C)CC/C(=N\OC(=O)c5cc([N+](=O)[O-])cc([N+](=O)[O-])c5)C(C)(C)C4CC[C@@]3(C)[C@]1(C)CC2 (stereo partly shown) [Compound 6g, 3-(3′,5′-Dinitro)benzoxyimino-11-oxoolean-12-en-28-oic acid methyl ester]				6.11 µM	1.19	8.98 µM	0.81	6.62 µM	1.10	5.39 µM	1.34	7.27 µM	5.39 to 8.98 µM	1.7 fold	2.4 fold	2.9 fold			
COC(=O)[C@]12CCC(C)(C)CC1C1=CC(=O)C3[C@@]4(C)CC/C(=N\OC(=O)c5ccccc5)C(C)(C)C4CC[C@@]3(C)[C@]1(C)CC2 (stereo partly shown) [Compound 6d, 3-Benzoxyimino-11-oxoolean-12-en-28-oic acid methyl ester]				28.4 µM	1.48	27.2 µM	1.54	27.5 µM	1.53	27.8 µM	1.51	~42 µM					42 µM	~27 µM	
COC(=O)[C@]12CCC(C)(C)CC1C1=CC(=O)C3[C@@]4(C)CC/C(=N\OC(C)=O)C(C)(C)C4CC[C@@]3(C)[C@]1(C)CC2 (stereo partly shown) [Compound 6a, 3-Acetoxyimino-11-oxoolean-12-en-28-oic acid methyl ester]				27.4 µM	1.79	27.9 µM	1.76	28 µM	1.75	28.2 µM	1.74	~49 µM					49.1 µM	~28 µM	
CC(=O)O/N=C1\CC[C@@]2(C)C(CC[C@]3(C)C2CC=C2C4CC(C)(C)CC[C@]4(C(=O)N4CCOCC4)CC[C@]23C)C1(C)C (stereo partly shown) [Compound 7a, 3-Acetoxyiminoolean-12-en-28-oic acid morpholide]				82.2 µM	1.41	81.5 µM	1.42	81 µM	1.43	84.9 µM	1.37	116 µM	≥ 80 µM						about 8 fold
CC1(C)CCC2(C(=O)N3CCOCC3)CCC3(C)C(=CCC4C5(C)CCC(=NO)C(C)(C)C5CCC43C)C2C1 (stereo not shown) [Compound 4]	1.8 µM	1.74 µM	1.6 µM	8.72 µM	1.60	8.72 µM	1.60	7.42 µM	1.88	7.29 µM	1.91	13.9 µM	7 to 8 µM						
COC(=O)[C@]12CCC(C)(C)CC1C1=CCC3[C@@]4(C)CC/C(=N\OC(=O)c5ccccc5)C(C)(C)C4CC[C@@]3(C)[C@]1(C)CC2 (stereo partly shown) [Compound 5d, 3-Benzoxyiminoolean-12-en-28-oic acid methyl ester]				84.9 µM	1.33	83.2 µM	1.36	83.3 µM	1.36	73.9 µM	1.53	113 µM	73.9 to 113 µM						
CC1(C)CC[C@]2(C(=O)N3CCOCC3)CC[C@]3(C)C(=CCC4[C@@]5(C)CC/C(=N\OC(=O)c6cc([N+](=O)[O-])cc([N+](=O)[O-])c6)C(C)(C)C5CC[C@]43C)C2C1 (stereo partly shown) [Compound 7g, 3-(3′,5′-Dinitro)benzoxyiminoolean-12-en-28-oic acid morpholide]				6.24 µM	1.47	6.01 µM	1.52	7.27 µM	1.26	6.52 µM	1.40	9.16 µM	4.19 to 8.98 µM	2.3 fold	2.6 fold	3.8 fold			
COC(=O)C12CCC(C)(C)CC1C1C(=NOC(=O)CBr)CC3C4(C)CCC(OC(C)=O)C(C)(C)C4CCC3(C)C1(C)CC2 (stereo not shown) [8c [22]]	4.41 µM	4.9 µM	3.76 µM																
CCC(=O)O/N=C1\CC[C@@]2(C)C(CC[C@]3(C)C2C(=O)C=C2C4CC(C)(C)CC[C@]4(C(=O)OC)CC[C@]23C)C1(C)C (stereo partly shown) [Compound 6c, 3-Propionoxyimino-11-oxoolean-12-en-28-oic acid methyl ester]				24 µM	2.04	24.8 µM	1.97	23 µM	2.13	24.2 µM	2.03	~50 µM					49 µM	~24 µM	
CCC(=O)O/N=C1\CC[C@@]2(C)C(CC[C@]3(C)C2CC=C2C4CC(C)(C)CC[C@]4(C(=O)OC)CC[C@]23C)C1(C)C (stereo partly shown) [Compound 5c, 3-Propionoxyiminoolean-12-en-28-oic acid methyl ester]				38.1 µM	1.05	38.8 µM	1.03	38.1 µM	1.05	36.2 µM	1.10	39.9 µM							2.2–4.1 fold
